Test system: F. graminearum
Format: in vivo
Settings: wheat seeds in F. graminearum-infested soil, 7 days after planting

SMILES: c1ccc2[nH]c(-c3cscn3)nc2c1 [Thiabendazole, thiabendazole]
- % Germination: 80 a %

— US6896883B2 (priority 1997, dated 2005)
